Laboratory results published in patent US20220274914A1, “TRICYCLIC DERIVATIVES AS HYPOXIA INDUCIBLE FACTOR-2(ALPHA) INHIBITORS” (NIKANG THERAPEUTICS, INC., priority 2019, published 2022).

Target: T1, HIF-2α (Homo sapiens, UniProt Q99814)
T1 construct: endogenous in cells; host or cells: 786-0 cells
Experiment: VEGF ELISA Assay
Format: cell-based
Conditions: VEGF expression in 786-0 cells; VEGF in culture medium by ELISA; four parameter dose-response fit
Method: The ability of the disclosed compounds to inhibit HIF-2α was measured by determining VEGF expression in 786-0 cells. About 7500 786-0 cells were seeded into each well of a 96-well, white, clear bottom plate (07-200-566, Fisher Scientific) with 200 ul growth medium. Four hours later, compounds were dispensed into wells by Tecan D300e digital dispenser with starting concentration of 10 uM and […] of dilution down to 1 nM as final concentration. Each concentration of treatment was performed in duplicate. About 20 hours later, medium was removed and fresh medium was added, followed by compounds treatment as described above. 24 hours later, cell culture medium was collected to determine VEGF concentration using an ELISA kit (R&D systems, cat #DVE00) following the manufacturer's instruction.
The EC50 is calculated by GraphPad Prism using the dose-response-inhibition (four parameter) equation. The plate with cells was then subjected to CellTiter-Glo luminescence cell viability assay (Promega) to determine the effect of these compounds on cell numbers after the above treatment.

T1 sequence (Q99814 whole entry): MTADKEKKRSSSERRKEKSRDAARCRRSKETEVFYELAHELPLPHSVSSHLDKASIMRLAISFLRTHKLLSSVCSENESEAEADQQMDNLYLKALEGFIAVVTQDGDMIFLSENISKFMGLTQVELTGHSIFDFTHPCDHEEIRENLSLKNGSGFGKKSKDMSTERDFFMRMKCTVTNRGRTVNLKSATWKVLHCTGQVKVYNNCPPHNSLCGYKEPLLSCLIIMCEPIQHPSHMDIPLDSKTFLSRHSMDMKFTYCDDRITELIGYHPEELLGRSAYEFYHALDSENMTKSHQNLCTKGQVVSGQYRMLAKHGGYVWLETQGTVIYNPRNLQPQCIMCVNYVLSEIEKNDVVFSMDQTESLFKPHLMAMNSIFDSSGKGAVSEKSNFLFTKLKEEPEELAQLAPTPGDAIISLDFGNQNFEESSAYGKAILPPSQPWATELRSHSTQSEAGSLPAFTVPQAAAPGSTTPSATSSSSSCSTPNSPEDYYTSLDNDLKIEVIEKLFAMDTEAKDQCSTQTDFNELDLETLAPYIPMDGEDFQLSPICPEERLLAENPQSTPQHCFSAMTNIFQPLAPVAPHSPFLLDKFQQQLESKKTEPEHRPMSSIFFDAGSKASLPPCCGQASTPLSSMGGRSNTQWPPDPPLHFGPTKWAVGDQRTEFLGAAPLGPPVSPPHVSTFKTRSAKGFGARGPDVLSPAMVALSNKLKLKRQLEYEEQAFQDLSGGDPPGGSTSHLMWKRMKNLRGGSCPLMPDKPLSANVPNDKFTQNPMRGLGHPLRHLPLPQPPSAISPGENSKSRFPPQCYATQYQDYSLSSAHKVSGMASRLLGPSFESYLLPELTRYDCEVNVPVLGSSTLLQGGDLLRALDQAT

SMILES | EC50 [µM]
N#Cc1cc(F)cc(Oc2ccc3c4c2CCCC4(O)C(F)(F)C3(F)F)c1 (stereo not drawn) [Compound 1, 3-fluoro-5-((1,1,2,2-tetrafluoro-8a-hydroxy-1,2,6,7,8,8a-hexahydroacenaphthylen-5-yl)oxy)benzonitrile] | 0.037
CC1CCC2(O)c3c(ccc(Oc4cc(F)cc(C#N)c4)c31)C(F)(F)C2(F)F (single isomer, unassigned) [the other of 7-1 and 7-2] | 3.05
CC1CCC2(O)c3c(ccc(Oc4cc(F)cc(C#N)c4)c31)C(F)(F)C2(F)F (single isomer, unassigned) [one of 7-1 and 7-2] | 0.372
N#Cc1cc(F)cc(Oc2ccc3c4c2CCC[C@]4(O)C(F)(F)C3(F)F)c1 [Compound 2, (R)-3-fluoro-5-((1,1,2,2-tetrafluoro-8a-hydroxy-1,2,6,7,8,8a-hexahydroacenaphthylen-5-yl)oxy)benzonitrile] | 0.006
N#Cc1cc(F)cc(Oc2ccc3c4c2C(F)C(F)(F)CC4(O)C(F)(F)C3(F)F)c1 (stereo not drawn) [8-1 or 8-2] | 0.023
C=C1CCC2(O)c3c(ccc(Oc4cc(F)cc(C#N)c4)c31)C(F)(F)C2(F)F (stereo not drawn) [Compound 3, 3-fluoro-5-((1,1,2,2-tetrafluoro-8a-hydroxy-6-methylene-1,2,6,7,8,8a-hexahydroacenaphthylen-5-yl)oxy)benzonitrile] | 0.534
